# According to patent US5972351A, “Plasmodium falciparum MHC class I-restricted CTL epitopes derived from pre-erythrocytic stage antigens” (Isis Innovation Limited, priority 1992, dated 1999):
# Tests used:
# [1] = system: B53 matched target cells; assay: CTL assay with HIV-2 gag restimulated CTL; assay type: cell-based, human; conditions: CTL from one HLA-B53 positive HIV-2 infected Gambian
# [2] = target: T1, HLA-B53 (Homo sapiens, UniProt P01889, A329T/A93T/A95T/C349S/D201E/D98Y/E176V/E187L/E204Q/E69T/G107R/I218V/K202T/L105A/L119I/N104I/Q94N/R106L/R155S/R180L/S101N/S121R/S35A/S48A/T118I/V127L/V306I/V36M/Y140S/Y91F); assay: HLA assembly assay (peptide binding to HLA-B53); conditions: lysates of T2-B53 cells; all peptides initially tested at 4 μM
# T1 construct: by transfection with a genomic clone of HLA-B53 using hygromycin selection; expressed in transfected cells; host or cells: T2-B53 (T2 cells transfected with a genomic clone of HLA-B53); lysates of 35S-methionine-labelled cells
# Protocol: Briefly, the mutant cell line T2-B53 was derived from T2 cells of HLA type, HLA-A2, -B51, by transfection with a genomic clone of HLA-B53 using hygromycin selection. […] Peptide concentrations were determined with a Micro BCA colourimetric assay (Pierce). Peptides were added to lysates of ^35 S-methionine-labelled cells and incubated overnight at 4° C.^36. Stable assembled class I molecules were then precipitated with monoclonal antibodies W6/32^34 (reactive with all assembled class I molecules) or MHM5^41 (reactive with assembled HLA-B but not HLA-A molecules).
sequence,measurement,setting,value
ALSEGCTPYDINQMLNNCVGD [P1],recognition of peptide-pulsed targets by HIV 2-gag restimulated CTL,[1],recognised
same,binding to HLA-B53 in the HLA assembly assay,[2],positive result
